Assay results published in ChEMBL document CHEMBL1201862, “PubChem BioAssay data set” (2004).
The source made the active and inactive calls.

Tests used:
[1] = target: T1, Corticotropin-releasing factor receptor 2/Corticotropin-releasing factor-binding protein (Homo sapiens, UniProt P24387+Q13324); assay: Dose Response confirmation of uHTS hits for small molecule antagonists of the CRF-binding protein and CRF-R2 receptor complex.; type: functional; conditions: read-out: IC50_Mean
T1 sequence (Q13324 whole entry): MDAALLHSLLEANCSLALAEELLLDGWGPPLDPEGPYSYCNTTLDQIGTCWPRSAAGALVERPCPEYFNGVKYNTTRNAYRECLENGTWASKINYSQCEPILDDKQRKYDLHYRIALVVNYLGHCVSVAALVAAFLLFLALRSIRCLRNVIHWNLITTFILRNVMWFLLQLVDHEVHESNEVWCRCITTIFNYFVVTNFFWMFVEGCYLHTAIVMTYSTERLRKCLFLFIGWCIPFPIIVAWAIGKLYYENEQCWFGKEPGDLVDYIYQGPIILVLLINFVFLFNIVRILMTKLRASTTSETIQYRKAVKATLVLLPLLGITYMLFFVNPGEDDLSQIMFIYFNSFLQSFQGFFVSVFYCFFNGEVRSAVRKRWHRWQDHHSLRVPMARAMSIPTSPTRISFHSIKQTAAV
T1 sequence (P24387 whole entry): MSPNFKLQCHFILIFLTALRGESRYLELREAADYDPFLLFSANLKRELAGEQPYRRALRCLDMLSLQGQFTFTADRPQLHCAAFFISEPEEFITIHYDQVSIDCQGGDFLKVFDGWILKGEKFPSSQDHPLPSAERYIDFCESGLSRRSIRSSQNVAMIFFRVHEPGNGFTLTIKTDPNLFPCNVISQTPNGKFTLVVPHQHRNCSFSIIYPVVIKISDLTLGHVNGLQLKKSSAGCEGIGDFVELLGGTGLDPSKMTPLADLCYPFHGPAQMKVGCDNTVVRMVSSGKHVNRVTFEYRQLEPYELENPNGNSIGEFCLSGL

[2] = Luminescence Cell-Based Dose Retest to Confirm Inhibitors of Cancer Stem Cells. [Related pubchem assays (depositor defined):AID2717, AID2721]; type: functional; conditions: Homo sapiens
[3] = target: T1, Corticotropin-releasing factor receptor 2/Corticotropin-releasing factor-binding protein; assay: activators of CRF receptor 2 with binding protein – uHTS hits, confirmation (AID 602473); type: functional; conditions: read-out: EC50_Mean
[4] = CRF-BP/CRF-R2 complex antagonists, dose response, cell-based, uHTS hits, 384-well (AID 651639); type: functional, Homo sapiens; conditions: read-out: IC50_Mean
[5] = target: Arf-GAP with SH3 domain, ANK repeat and PH domain-containing protein 1 (Homo sapiens, UniProt Q9ULH1); type: functional;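 note: biochemical fluorescence polarization dose–response screen measuring inhibition of ASAP1; ASAP1 GAP domain stimulating GTP hydrolysis by truncated human ARF1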
[6] = target: T2, Carboxy-terminal domain RNA polymerase II polypeptide A small phosphatase 1 (Homo sapiens, UniProt Q9GZU7); assay: inhibitors of CTDSP1, concentration-response testing, biochemical assay, absorbance-based, actives from ultra-high-throughput screening (AID 540297); type: functional
T2 sequence (Q9GZU7 whole entry): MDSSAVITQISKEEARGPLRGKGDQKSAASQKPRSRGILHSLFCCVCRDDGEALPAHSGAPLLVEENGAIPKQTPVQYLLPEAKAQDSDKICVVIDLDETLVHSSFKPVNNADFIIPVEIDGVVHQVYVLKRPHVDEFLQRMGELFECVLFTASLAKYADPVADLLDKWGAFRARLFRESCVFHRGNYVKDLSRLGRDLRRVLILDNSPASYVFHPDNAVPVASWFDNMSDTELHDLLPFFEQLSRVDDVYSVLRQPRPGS

[7] = target: T3, Rac GTPase-activating protein 1 (Homo sapiens, UniProt Q9H0H5); assay: MgcRacGAP GTPase-activating activity inhibitors, confirmation, biochemical, ADP Hunter fluorescence, primary and confirmatory (AID 624330); type: functional
T3 sequence (Q9H0H5 whole entry): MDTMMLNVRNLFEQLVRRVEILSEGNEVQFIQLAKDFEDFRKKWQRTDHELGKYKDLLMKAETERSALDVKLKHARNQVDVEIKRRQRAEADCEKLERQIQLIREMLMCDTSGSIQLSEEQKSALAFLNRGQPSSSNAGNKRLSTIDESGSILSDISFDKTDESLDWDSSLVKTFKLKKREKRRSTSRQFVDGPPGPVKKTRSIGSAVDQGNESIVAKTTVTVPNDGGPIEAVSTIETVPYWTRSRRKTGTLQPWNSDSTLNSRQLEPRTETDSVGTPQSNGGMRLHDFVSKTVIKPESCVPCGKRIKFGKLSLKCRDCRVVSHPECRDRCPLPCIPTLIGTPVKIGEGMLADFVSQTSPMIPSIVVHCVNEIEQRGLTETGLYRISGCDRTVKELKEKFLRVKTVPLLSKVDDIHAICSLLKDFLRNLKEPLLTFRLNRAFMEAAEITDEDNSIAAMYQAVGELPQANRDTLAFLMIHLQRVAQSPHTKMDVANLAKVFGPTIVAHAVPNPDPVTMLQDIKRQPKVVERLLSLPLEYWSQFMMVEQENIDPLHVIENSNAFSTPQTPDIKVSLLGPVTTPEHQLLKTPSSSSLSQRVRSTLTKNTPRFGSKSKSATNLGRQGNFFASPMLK

[8] = HeLa cell cytotoxicity, dose response, cytotoxicity control for MgcRacGAP inhibitor project (AID 624300); type: functional
[9] = target: Beta-lactamase (Salmonella choleraesuis (strain SC-B67), UniProt Q5J463)
[10] = target: T4, Apoptotic protease-activating factor 1 (Homo sapiens, UniProt O14727); type: functional
T4 sequence (O14727 whole entry): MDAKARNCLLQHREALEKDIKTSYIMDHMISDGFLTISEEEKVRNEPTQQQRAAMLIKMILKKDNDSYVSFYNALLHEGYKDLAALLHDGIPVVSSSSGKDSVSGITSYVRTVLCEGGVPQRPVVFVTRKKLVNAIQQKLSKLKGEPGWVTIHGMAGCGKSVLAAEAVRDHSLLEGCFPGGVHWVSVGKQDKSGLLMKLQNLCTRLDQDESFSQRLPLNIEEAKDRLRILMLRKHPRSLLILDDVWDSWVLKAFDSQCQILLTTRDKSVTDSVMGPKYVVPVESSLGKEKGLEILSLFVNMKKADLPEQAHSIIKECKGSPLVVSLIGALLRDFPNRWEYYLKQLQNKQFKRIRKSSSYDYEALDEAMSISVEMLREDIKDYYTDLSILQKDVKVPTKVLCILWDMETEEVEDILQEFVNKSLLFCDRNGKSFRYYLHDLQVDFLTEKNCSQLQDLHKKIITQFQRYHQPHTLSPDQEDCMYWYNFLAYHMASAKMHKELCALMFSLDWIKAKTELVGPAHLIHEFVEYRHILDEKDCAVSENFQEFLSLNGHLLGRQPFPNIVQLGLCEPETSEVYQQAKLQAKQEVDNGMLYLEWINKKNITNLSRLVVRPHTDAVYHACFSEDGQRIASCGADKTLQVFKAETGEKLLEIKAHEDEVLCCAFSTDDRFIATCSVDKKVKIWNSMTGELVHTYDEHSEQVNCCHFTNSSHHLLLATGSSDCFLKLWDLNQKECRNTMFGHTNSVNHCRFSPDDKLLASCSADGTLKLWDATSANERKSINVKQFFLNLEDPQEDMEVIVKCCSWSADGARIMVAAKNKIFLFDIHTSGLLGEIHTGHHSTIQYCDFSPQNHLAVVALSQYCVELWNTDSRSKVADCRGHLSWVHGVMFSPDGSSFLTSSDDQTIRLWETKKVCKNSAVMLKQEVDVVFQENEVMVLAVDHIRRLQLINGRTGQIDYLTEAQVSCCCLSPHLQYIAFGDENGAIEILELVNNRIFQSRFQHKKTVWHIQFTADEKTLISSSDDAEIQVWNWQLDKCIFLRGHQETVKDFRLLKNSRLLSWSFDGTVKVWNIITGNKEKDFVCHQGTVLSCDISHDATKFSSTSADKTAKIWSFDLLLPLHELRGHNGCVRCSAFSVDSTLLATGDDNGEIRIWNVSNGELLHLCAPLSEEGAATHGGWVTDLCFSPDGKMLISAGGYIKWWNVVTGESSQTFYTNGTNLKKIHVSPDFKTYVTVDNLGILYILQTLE

[11] = target: T5, Zinc finger protein mex-5 (Caenorhabditis elegans, UniProt Q9XUB2); assay: MEX-5/TCR-2 RNA interaction inhibitors, dose response, biochemical, C. elegans, fluorescence polarization (AID 1960)
T5 sequence (Q9XUB2 whole entry): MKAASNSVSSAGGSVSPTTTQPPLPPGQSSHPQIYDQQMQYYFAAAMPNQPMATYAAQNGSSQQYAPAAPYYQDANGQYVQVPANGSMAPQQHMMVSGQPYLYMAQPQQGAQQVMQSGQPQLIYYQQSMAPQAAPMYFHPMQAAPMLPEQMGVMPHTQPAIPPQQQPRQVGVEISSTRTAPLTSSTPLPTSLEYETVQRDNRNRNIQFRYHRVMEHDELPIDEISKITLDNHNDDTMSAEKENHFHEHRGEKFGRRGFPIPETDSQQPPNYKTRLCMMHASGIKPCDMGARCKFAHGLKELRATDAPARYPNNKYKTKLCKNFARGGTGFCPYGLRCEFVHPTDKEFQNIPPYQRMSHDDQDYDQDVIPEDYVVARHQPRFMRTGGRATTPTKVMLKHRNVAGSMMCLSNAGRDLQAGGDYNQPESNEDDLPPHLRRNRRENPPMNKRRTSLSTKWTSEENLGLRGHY

[12] = target: T6, RNA-binding protein pos-1 (Caenorhabditis elegans, UniProt G5EF15); assay: inhibitors of POS-1/mex-3 RNA binding, dose response, biochemical, fluorescence polarization (AID 1964);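 note: purified POS-1 fused to maltose binding protein made in E. coli; potency of compounds blocking POS-1 binding to fluorescent RNA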
T6 sequence (G5EF15 whole entry): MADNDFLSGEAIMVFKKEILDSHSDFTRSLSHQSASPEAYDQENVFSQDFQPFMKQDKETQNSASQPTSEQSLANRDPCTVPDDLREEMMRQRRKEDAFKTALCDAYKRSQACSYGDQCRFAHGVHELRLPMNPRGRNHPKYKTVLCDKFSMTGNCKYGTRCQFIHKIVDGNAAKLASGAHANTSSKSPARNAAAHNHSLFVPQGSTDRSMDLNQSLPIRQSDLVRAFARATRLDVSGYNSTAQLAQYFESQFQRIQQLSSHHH

[13] = target: Beta-lactamase (Pseudomonas aeruginosa, UniProt Q79MP6);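 note: biochemical dose-response test of metallo-beta-lactamase enzyme inhibition, read out by epi-absorbance; purified recombinant IMP-1 metallo-beta-lactamase with nitrocefin as substrate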
[14] = target: T7, Low molecular weight phosphotyrosine protein phosphatase (Homo sapiens, UniProt P24666); type: functional; conditions: read-out: IC50_Mean;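 note: Dose-response confirmation assay measuring inhibition of LMPTP enzyme activity by fluorescence intensity read-out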
T7 sequence (P24666 whole entry): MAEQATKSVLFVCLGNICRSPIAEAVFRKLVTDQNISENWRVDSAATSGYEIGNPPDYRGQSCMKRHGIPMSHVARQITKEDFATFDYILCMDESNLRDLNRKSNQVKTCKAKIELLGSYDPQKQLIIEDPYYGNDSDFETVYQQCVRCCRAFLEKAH

[15] = target: T8, Sentrin-specific protease 8 (Homo sapiens, UniProt Q96LD8); type: functional
T8 sequence (Q96LD8 whole entry): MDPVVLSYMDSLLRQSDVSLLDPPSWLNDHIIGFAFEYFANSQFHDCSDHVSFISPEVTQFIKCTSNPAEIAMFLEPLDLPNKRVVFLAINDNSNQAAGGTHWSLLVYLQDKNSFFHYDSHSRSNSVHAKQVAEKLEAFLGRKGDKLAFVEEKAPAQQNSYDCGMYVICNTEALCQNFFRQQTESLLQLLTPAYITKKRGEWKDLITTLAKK

[16] = target: T8, Sentrin-specific protease 8; type: functional; remark: listed apart in the source
[17] = target: Induced myeloid leukemia cell differentiation protein Mcl-1 (Homo sapiens, UniProt Q07820); type: functional
[18] = target: 72 kDa type IV collagenase (Homo sapiens, UniProt P08253); assay: Dose Response validation of uHTS RPN11 inhibitor hits using a MMP-2 Fluorescence assay.; type: functional
[19] = target: 26S proteasome non-ATPase regulatory subunit 14 (Homo sapiens, UniProt O00487); assay: inhibition of proteasome subunit RPN11 – biochemical, fluorescence polarization, uHTS hits, confirmation (AID 602368); type: functional
[20] = target: T9, Voltage-gated N-type calcium channel alpha-1B subunit/Amyloid beta A4 precursor protein-binding family A member 1 (Homo sapiens, UniProt Q00975+Q02410); type: protein assay
[21] = target: Prothrombin (Bos taurus, UniProt P00735); assay: thrombin inhibition, dose response, biochemical, fluorescence polarization, uHTS hits (AID 602369); type: functional
[22] = target: T9, Voltage-gated N-type calcium channel alpha-1B subunit/Amyloid beta A4 precursor protein-binding family A member 1; type: protein assay; remark: listed apart in the source
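Throughout, for AC50: cells exposed to compound for roughly 70 hours or longer before luminescence read.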

Arf-GAP with SH3 domain, ANK repeat and PH domain-containing protein 1, sequence (Q9ULH1 whole entry, the tested form may be a part): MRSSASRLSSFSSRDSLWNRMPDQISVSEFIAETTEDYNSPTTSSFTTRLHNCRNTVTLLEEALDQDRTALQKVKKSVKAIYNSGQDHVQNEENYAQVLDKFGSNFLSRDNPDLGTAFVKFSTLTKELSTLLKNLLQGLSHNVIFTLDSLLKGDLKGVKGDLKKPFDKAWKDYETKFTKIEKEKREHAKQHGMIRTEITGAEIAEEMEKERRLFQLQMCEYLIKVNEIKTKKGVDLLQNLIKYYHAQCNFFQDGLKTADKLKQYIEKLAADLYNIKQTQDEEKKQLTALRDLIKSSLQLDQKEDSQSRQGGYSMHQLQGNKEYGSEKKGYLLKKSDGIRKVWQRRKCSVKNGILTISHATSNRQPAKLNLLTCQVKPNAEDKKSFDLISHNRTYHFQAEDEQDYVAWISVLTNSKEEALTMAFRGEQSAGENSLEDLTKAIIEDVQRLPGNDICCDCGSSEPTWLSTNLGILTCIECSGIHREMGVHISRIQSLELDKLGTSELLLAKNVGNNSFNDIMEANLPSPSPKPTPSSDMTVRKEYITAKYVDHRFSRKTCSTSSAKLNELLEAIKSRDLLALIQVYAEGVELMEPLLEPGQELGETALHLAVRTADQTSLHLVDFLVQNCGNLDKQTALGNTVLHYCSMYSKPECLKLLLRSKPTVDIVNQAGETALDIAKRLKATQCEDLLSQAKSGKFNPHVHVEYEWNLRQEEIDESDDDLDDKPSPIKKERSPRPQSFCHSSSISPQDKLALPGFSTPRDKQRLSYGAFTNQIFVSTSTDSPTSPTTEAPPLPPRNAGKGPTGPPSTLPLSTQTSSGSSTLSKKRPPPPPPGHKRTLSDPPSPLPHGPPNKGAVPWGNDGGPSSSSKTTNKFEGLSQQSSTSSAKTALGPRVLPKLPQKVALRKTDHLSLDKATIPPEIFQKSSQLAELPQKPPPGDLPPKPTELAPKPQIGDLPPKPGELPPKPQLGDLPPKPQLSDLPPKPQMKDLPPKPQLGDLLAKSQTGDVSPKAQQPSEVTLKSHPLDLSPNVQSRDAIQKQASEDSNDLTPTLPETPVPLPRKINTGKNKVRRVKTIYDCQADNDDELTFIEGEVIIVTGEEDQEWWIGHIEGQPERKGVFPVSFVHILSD
T9 sequence (Q00975 whole entry): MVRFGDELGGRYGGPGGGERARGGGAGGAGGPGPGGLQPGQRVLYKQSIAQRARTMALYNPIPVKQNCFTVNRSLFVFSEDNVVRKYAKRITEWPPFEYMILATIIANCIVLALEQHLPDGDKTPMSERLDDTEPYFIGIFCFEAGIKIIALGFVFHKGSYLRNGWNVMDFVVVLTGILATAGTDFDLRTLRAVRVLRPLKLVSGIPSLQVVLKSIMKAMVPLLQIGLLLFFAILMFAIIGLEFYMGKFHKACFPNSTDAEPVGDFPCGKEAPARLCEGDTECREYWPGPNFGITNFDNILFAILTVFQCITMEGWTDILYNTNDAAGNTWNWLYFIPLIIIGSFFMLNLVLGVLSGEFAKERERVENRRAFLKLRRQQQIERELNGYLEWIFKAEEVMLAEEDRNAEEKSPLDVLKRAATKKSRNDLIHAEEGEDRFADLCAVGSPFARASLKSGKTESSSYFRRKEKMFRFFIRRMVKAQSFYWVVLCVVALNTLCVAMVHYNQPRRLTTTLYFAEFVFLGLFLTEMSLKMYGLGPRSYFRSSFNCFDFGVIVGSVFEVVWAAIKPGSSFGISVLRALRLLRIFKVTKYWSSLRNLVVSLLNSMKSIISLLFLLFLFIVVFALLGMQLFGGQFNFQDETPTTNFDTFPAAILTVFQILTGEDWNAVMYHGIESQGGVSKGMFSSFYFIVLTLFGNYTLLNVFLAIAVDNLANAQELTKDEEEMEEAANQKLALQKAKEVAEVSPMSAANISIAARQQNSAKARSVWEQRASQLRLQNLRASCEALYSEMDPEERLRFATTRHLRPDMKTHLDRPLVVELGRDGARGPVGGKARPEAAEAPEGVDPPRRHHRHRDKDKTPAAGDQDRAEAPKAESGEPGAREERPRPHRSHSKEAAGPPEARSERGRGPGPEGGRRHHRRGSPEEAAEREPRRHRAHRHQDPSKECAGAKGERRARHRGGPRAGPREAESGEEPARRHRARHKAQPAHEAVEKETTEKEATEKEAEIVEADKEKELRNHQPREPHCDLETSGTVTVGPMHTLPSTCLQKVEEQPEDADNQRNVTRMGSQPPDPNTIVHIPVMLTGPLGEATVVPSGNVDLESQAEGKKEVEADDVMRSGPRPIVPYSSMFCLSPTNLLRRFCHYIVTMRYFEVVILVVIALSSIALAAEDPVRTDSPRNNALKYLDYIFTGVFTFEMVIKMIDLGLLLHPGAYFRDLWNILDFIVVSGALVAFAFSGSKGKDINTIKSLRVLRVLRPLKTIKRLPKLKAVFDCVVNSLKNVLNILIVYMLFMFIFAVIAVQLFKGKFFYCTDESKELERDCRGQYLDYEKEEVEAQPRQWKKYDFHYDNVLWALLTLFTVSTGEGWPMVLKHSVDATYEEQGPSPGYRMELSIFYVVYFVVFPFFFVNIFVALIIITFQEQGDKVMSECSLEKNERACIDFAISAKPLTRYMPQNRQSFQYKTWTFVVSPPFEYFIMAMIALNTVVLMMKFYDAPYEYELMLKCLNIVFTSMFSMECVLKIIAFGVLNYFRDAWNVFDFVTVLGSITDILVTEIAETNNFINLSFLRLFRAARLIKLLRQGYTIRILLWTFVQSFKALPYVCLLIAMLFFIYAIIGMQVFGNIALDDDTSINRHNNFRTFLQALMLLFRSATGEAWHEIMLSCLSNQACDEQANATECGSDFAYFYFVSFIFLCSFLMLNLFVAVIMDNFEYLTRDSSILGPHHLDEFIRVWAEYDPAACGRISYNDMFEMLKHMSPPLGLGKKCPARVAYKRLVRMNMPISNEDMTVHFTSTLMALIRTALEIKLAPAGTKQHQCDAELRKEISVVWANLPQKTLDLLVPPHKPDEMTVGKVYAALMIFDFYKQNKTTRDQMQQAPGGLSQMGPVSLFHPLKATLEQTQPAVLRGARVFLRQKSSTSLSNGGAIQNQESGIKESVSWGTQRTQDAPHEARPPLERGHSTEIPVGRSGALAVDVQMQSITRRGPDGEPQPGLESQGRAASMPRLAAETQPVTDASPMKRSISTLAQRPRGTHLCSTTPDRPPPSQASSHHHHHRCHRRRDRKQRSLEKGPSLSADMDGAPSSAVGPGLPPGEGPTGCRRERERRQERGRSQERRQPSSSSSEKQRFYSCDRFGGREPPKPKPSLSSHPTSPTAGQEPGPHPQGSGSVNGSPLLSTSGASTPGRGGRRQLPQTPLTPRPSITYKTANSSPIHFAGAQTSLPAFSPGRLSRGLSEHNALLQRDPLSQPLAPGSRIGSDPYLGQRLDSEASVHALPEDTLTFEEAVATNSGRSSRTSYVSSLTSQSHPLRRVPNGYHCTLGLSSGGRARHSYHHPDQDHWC
T9 sequence (Q02410 whole entry): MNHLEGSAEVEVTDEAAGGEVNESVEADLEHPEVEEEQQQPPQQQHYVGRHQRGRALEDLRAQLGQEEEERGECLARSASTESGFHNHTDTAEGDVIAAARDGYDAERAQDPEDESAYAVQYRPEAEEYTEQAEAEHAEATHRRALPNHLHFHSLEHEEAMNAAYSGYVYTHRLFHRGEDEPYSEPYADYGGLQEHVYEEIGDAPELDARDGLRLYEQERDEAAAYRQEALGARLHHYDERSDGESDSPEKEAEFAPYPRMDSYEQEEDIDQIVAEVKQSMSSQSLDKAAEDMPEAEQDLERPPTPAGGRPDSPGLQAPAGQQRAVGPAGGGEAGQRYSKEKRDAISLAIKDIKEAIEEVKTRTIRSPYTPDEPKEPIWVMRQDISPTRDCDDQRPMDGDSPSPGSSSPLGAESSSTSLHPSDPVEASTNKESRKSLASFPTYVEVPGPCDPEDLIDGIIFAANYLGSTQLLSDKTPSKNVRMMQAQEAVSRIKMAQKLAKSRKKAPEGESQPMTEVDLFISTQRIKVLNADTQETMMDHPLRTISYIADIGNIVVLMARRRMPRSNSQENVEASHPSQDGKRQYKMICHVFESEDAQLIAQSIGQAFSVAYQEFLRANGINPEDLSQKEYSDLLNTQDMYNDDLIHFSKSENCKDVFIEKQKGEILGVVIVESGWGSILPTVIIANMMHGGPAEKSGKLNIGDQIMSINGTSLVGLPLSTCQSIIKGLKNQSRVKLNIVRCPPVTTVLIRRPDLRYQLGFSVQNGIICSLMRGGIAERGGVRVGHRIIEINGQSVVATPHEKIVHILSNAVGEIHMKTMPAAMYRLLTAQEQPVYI
Beta-lactamase (Salmonella choleraesuis (strain SC-B67), UniProt Q5J463), sequence (Q5J463 whole entry): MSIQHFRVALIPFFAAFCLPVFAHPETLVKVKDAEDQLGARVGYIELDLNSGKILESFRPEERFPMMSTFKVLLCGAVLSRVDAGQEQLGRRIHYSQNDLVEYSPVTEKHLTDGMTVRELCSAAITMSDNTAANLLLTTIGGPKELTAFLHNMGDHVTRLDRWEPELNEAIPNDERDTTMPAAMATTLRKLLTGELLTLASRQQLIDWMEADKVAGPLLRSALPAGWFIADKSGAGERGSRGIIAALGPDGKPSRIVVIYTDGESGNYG
Beta-lactamase (Pseudomonas aeruginosa, UniProt Q79MP6), sequence (Q79MP6 whole entry): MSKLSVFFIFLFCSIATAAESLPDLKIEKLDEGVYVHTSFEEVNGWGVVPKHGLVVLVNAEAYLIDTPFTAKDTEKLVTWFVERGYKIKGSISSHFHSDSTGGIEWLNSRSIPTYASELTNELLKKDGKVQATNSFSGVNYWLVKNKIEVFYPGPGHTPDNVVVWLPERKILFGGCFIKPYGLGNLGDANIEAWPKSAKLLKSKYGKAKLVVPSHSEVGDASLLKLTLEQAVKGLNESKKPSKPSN

## N#Cc1c(O)nc(SCc2cccc(Cl)c2)nc1-c1ccccc1
[1]
  IC50: < 0.368 µM (active)
[2]
  AC50: 4.86 µM (active)
[3]
  EC50: > 53 µM (inactive)
[4]
  IC50: > 20 µM (inactive)

## O=c1c([N+](=O)[O-])c(NC2CCCCC2)c2ccccc2n1-c1ccccc1
[1]
  IC50: 4.33 µM (active)
[3]
  EC50: > 53 µM (inactive)
[4]
  IC50: > 20 µM (inactive)

## Cc1ccc(C(=O)Nc2cccc(NC(=O)c3ccc(C)c([N+](=O)[O-])c3)n2)cc1[N+](=O)[O-]
[5]
  IC50: 41.9 µM (inactive)
[6]
  IC50: 4.55 µM (active)

## C=CCc1c(C)nc(-c2ccccc2)nc1Nc1ccc(O)cc1
[7]
  IC50: 38.1 µM (active)
[8]
  CC50: 100 µM (active)

## O=Cc1ccc2cccc3c2c1NC(C(F)(F)F)=N3
[9]
  IC50: 27.9 µM (inactive)
[10]
  IC50: 9.2 µM (active)
[11]
  EC50: 24.8 µM (active)
[12]
  EC50: 27.6 µM (active)
[13]
  IC50: 32.6 µM (inactive)

## Nc1ccc(Cc2ccc(N)c(O)c2)cc1O
[14]
  IC50: 26.7 µM (inactive)
[15]
  IC50: 27 µM (active)
[16]
  IC50: > 100 µM (inactive)
[17]
  IC50: > 54 µM (active)

## COC(=O)c1ccc(NC(=O)c2ccc(NC(=O)c3ccco3)cc2)cc1
[5]
  IC50: 25.8 µM (inactive)
[18]
  IC50: > 100 µM (inactive)
[19]
  IC50: 23 µM (active)
[20]
  IC50: 5.25 µM (active)
[21]
  IC50: 73 µM (active)
[22]
  IC50: > 50 µM (inactive)

## O=P(O)(O)c1cc(-c2ccccc2)oc1-c1ccccc1
[9]
  IC50: > 59.6 µM (inactive)
[13]
  IC50: 22.5 µM (inactive)
